# According to PMC11045757, “Group 3 medulloblastoma transcriptional networks collapse under domain specific EP300/CBP inhibition” (Nature Communications, 2024):
# Test system: 460 barcoded cancer cell lines
# Assay: PRISM pooled barcoded cancer cell line growth screen, 10-point dose-response, 5 days, AUC
# Format: cell-based
# Set-up: scale not given here
# Description: Several small molecule inhibitors of distinct protein domains of EP300/CBP are available, though the majority target the histone acetyltransferase domain (HAT) or bromodomain (BRD)[5],[10],[21],[22]. […] We used these tools to investigate the relative contribution of the EP300/CBP BRD or HAT domain to tumor cell growth (Fig. 1a). To do so, we performed 10-point, dose-response growth assays using mixed pools of 460 barcoded cancer cell lines, over five days of treatment in vitro[33],[34]. Growth was measured using an area-under-the-curve (AUC) approach (Supplementary Table 1, Supplementary Fig. 1a). […] Given potential differences in compound penetration and solubility, and to compare the relative cell line and tumor-specific effects of these two compounds in assays performed non-simultaneously, we performed a median normalization of each dataset (Supplementary Table 2).
smiles,measurement,setting,value
CNC(=O)Nc1ccc2c(c1)CCC21OC(=O)N(CC(=O)N(Cc2ccc(F)cc2)C(C)C(F)(F)F)C1=O (centres unmarked) [Compound A485],AUC,"MG63, Osteosarcoma",0.9115
same,AUC,"MHHES1, Ewing Sarcoma",0.4553
same,AUC,"MHHNB11, Neuroblastoma",0.7182
same,AUC,"MIAPACA2, Pancreatic Cancer",0.9009
same,AUC,"MKN1, Gastric Cancer",0.9671
same,AUC,"MKN7, Gastric Cancer",0.9501
same,AUC,"MKN45, Gastric Cancer",0.5235
same,AUC,"MOLM13, AML",0.5776
same,AUC,"MOLM16, AML",1
same,AUC,"MOLT3, T-acute leukemia",0.8162
same,AUC,"MOLT16, T-acute leukemia",0.9273
same,AUC,"MON, Rhabdoid",0.6327
same,AUC,"NB1, Neuroblastoma",0.493
same,AUC,"NB4, AML",1
same,AUC,"NCIH23, Lung Cancer",0.8307
same,AUC,"NCIH28, Lung Cancer",0.8488
same,AUC,"NCIH82, Lung Cancer",1
same,AUC,"NCIH196, Lung Cancer",0.825
same,AUC,"NCIH211, Lung Cancer",0.6824
same,AUC,"NCIH226, Lung Cancer",0.8402
same,AUC,"NCIH292, Lung Cancer",0.7841
same,AUC,"NCIH322, Lung Cancer",0.7616
same,AUC,"NCIH358, Lung Cancer",0.8611
same,AUC,"NCIH441, Lung Cancer",0.8818
same,AUC,"NCIH460, Lung Cancer",0.9648
same,AUC,"NCIH520, Lung Cancer",0.9521
same,AUC,"NCIH524, Lung Cancer",0.8317
same,AUC,"NCIH596, Lung Cancer",0.8954
same,AUC,"NCIH647, Lung Cancer",1
same,AUC,"NCIH650, Lung Cancer",0.8159
same,AUC,"NCIH661, Lung Cancer",0.6677
same,AUC,"NCIH747, Colon/Colorectal Cancer",0.838
same,AUC,"NCIH841, Lung Cancer",0.8663
same,AUC,"NCIH1048, Lung Cancer",0.8631
same,AUC,"NCIH1299, Lung Cancer",0.8424
same,AUC,"NCIH1341, Lung Cancer",1
same,AUC,"NCIH1373, Lung Cancer",0.7413
same,AUC,"NCIH1437, Lung Cancer",0.6724
same,AUC,"NCIH1568, Lung Cancer",0.921
same,AUC,"NCIH1573, Lung Cancer",0.8005
same,AUC,"NCIH1581, Lung Cancer",0.7694
same,AUC,"NCIH1648, Lung Cancer",0.776
same,AUC,"NCIH1792, Lung Cancer",0.691
same,AUC,"NCIH1793, Lung Cancer",0.7572
same,AUC,"NCIH1838, Lung Cancer",0.8275
same,AUC,"NCIH1930, Lung Cancer",1
same,AUC,"NCIH1944, Lung Cancer",0.8729
same,AUC,"NCIH1975, Lung Cancer",0.8115
same,AUC,"NCIH2004RT, Rhabdoid",0.9741
same,AUC,"NCIH2052, Lung Cancer",0.6997
same,AUC,"NCIH2122, Lung Cancer",0.4802
same,AUC,"NCIH2170, Lung Cancer",0.9434
same,AUC,"NCIH2172, Lung Cancer",0.8484
same,AUC,"NCIH2196, Lung Cancer",0.8734
same,AUC,"NCIH2228, Lung Cancer",0.7811
same,AUC,"NCIH2347, Lung Cancer",0.6039
same,AUC,"NCIH2444, Lung Cancer",0.8316
same,AUC,"NCO2, CML",0.8351
same,AUC,"NIHOVCAR3, Ovarian Cancer",0.9964
same,AUC,"NUDHL1, Lymphoma",0.9213
same,AUC,"NUGC3, Gastric Cancer",0.8775
same,AUC,"OAW42, Ovarian Cancer",0.7266
same,AUC,"OC314, Ovarian Cancer",0.891
same,AUC,"OC316, Ovarian Cancer",0.9187
same,AUC,"OCIAML2, AML",0.6159
same,AUC,"OCIAML3, AML",0.7819
same,AUC,"OCILY19, Lymphoma",0.6711
same,AUC,"OCILY132, T-cell lymphoma",0.9357
same,AUC,"OCIM1, AML",0.6185
same,AUC,"OE19, Esophageal Cancer",0.9392
same,AUC,"OE21, Esophageal Cancer",0.6998
same,AUC,"ONCODG1, Ovarian Cancer",0.9734
same,AUC,"ONS76, Medulloblastoma",0.7969
same,AUC,"OSRC2, Kidney Cancer",0.9758
same,AUC,"OV56, Ovarian Cancer",0.9822
same,AUC,"OVCAR8, Ovarian Cancer",0.8889
same,AUC,"OVISE, Ovarian Cancer",0.951
same,AUC,"OVK18, Ovarian Cancer",0.5397
same,AUC,"OVKATE, Ovarian Cancer",0.8663
same,AUC,"OVTOKO, Ovarian Cancer",0.8262
same,AUC,"PANC0203, Pancreatic Cancer",0.6928
same,AUC,"PANC0327, Pancreatic Cancer",0.889
same,AUC,"PANC0403, Pancreatic Cancer",0.6894
same,AUC,"PANC0504, Pancreatic Cancer",0.8448
same,AUC,"PANC0813, Pancreatic Cancer",0.8655
same,AUC,"PATU8902, Pancreatic Cancer",0.9465
same,AUC,"PC3, Prostate Cancer",0.8494
same,AUC,"PECAPJ15, Head and Neck Cancer",0.6653
same,AUC,"PF382, T-acute leukemia",0.7674
same,AUC,"PK1, Pancreatic Cancer",0.6974
same,AUC,"PK59, Pancreatic Cancer",0.9772
same,AUC,"PSN1, Pancreatic Cancer",0.6172
same,AUC,"RCM1, Colon/Colorectal Cancer",0.8245
same,AUC,"RD, Rhabdomyosarcoma",0.8188
same,AUC,"RDES, Ewing Sarcoma",0.6507
same,AUC,"RERFLCAI, Lung Cancer",0.874
same,AUC,"RERFLCKJ, Lung Cancer",0.7393
same,AUC,"RH4, Rhabdomyosarcoma",0.678
same,AUC,"RH28, Rhabdomyosarcoma",1
same,AUC,"RH36, Rhabdomyosarcoma",1
same,AUC,"RHJT, Rhabdomyosarcoma",1
same,AUC,"RI1, B-cell Lymphoma",0.6781
same,AUC,"RL952, Endometrial/Uterine Cancer",0.946
same,AUC,"RL, B-cell Lymphoma",0.7056
same,AUC,"RPMI8402, T-acute leukemia",0.6488
same,AUC,"RT4, Bladder Cancer",0.8068
same,AUC,"RVH421, Melanoma",0.6261
same,AUC,"S117, Thyroid Sarcoma",0.733
same,AUC,"SAOS2, Osteosarcoma",0.6843
same,AUC,"SCABER, Bladder Cancer",0.7254
same,AUC,"SCC9, Head and Neck Cancer",0.6982
same,AUC,"SCC25, Head and Neck Cancer",0.8637
same,AUC,"SCLC21H, Lung Cancer",0.7482
same,AUC,"SEM, B-cell Leukemia",0.591
same,AUC,"SF539, Glioma",0.7626
same,AUC,"SH4, Melanoma",0.7491
same,AUC,"SH10TC, Gastric Cancer",0.9483
same,AUC,"SHP77, Lung Cancer",1
same,AUC,"SIMA, Neuroblastoma",0.7689
same,AUC,"SJSA1, Osteosarcoma",0.6938
same,AUC,"SKES1, Ewing Sarcoma",0.5686
same,AUC,"SKHEP1, Liver Cancer",0.9176
same,AUC,"SKM1, AML",0.6691
same,AUC,"SKMEL30, Melanoma",0.8035
same,AUC,"SKMES1, Lung Cancer",0.6858
same,AUC,"SKMM2, Myeloma",0.9139
same,AUC,"SKNAS, Neuroblastoma",0.7465
same,AUC,"SKNBE2, Neuroblastoma",0.711
same,AUC,"SKNDZ, Neuroblastoma",0.8727
same,AUC,"SKNEP1, Ewing Sarcoma",0.6902
same,AUC,"SKNMC, Ewing Sarcoma",0.8779
same,AUC,"SKNO1, AML",0.8126
same,AUC,"SKNSH, Neuroblastoma",0.7441
same,AUC,"SKOV3, Ovarian Cancer",0.768
same,AUC,"SKUT1, Leiomyosarcoma",0.8397
same,AUC,"SNU1, Gastric Cancer",1
same,AUC,"SNU46, Head and Neck Cancer",0.6485
same,AUC,"SNU61, Colon/Colorectal Cancer",0.8187
same,AUC,"SNU81, Colon/Colorectal Cancer",0.8344
same,AUC,"SNU182, Liver Cancer",0.5802
same,AUC,"SNU201, Glioblastoma",0.8259
same,AUC,"SNU213, Pancreatic Cancer",0.8601
same,AUC,"SNU216, Gastric Cancer",0.8096
same,AUC,"SNU245, Bile Duct Cancer",0.7564
same,AUC,"SNU398, Liver Cancer",0.8358
same,AUC,"SNU407, Colon/Colorectal Cancer",0.7333
same,AUC,"SNU423, Liver Cancer",0.7846
same,AUC,"SNU449, Liver Cancer",0.9343
same,AUC,"SNU466, Glioblastoma",0.8159
same,AUC,"SNU478, Bile Duct Cancer",0.7556
same,AUC,"SNU601, Gastric Cancer",0.8298
same,AUC,"SNU668, Gastric Cancer",0.8689
same,AUC,"SNU685, Endometrial/Uterine Cancer",0.8766
same,AUC,"SNU719, Gastric Cancer",0.9255
same,AUC,"SNU869, Bile Duct Cancer",0.9315
same,AUC,"SNU878, Liver Cancer",0.7163
same,AUC,"SNU886, Liver Cancer",0.7207
same,AUC,"SNU1041, Head and Neck Cancer",0.836
same,AUC,"SNU1066, Head and Neck Cancer",0.7809
same,AUC,"SNU1076, Head and Neck Cancer",0.7922
same,AUC,"SNU1077, Endometrial/Uterine Cancer",0.8978
same,AUC,"SNU1079, Bile Duct Cancer",0.8976
same,AUC,"SNU1105, Glioblastoma",0.823
same,AUC,"SNU1196, Bile Duct Cancer",0.8191
same,AUC,"SNU1214, Head and Neck Cancer",0.7713
same,AUC,"SNUC2A, Colon/Colorectal Cancer",1
same,AUC,"SNUC4, Colon/Colorectal Cancer",0.6416
same,AUC,"SQ1, Lung Cancer",0.8347
same,AUC,"SR786, Lymphoma",0.6609
same,AUC,"STM9101, Rhabdoid",0.89
same,AUC,"SUDHL8, Lymphoma",0.5295
same,AUC,"SW48, Colon/Colorectal Cancer",1
same,AUC,"SW579, Thyroid Cancer",0.7659
same,AUC,"SW620, Colon/Colorectal Cancer",0.9454
same,AUC,"SW780, Bladder Cancer",0.7867
same,AUC,"SW837, Colon/Colorectal Cancer",0.675
same,AUC,"SW900, Lung Cancer",0.774
same,AUC,"SW948, Colon/Colorectal Cancer",0.5667
same,AUC,"SW1088, Glioma",0.7952
same,AUC,"SW1116, Colon/Colorectal Cancer",0.9547
same,AUC,"SW1463, Colon/Colorectal Cancer",0.6958
same,AUC,"SW1710, Bladder Cancer",0.7157
same,AUC,"T3M10, Lung Cancer",0.9036
same,AUC,"T24, Bladder Cancer",0.9232
same,AUC,"T47D, Breast Cancer",0.9704
same,AUC,"TALL1, T-acute leukemia",0.6985
same,AUC,"TC71, Ewing Sarcoma",0.9262
same,AUC,"TC106, Ewing Sarcoma",0.5807
same,AUC,"TC205, Ewing Sarcoma",0.554
same,AUC,"TCCPAN2, Pancreatic Cancer",0.884
same,AUC,"TCCSUP, Bladder Cancer",0.8481
same,AUC,"TE1, Esophageal Cancer",0.8516
same,AUC,"TE4, Esophageal Cancer",0.8986
same,AUC,"TE5, Esophageal Cancer",0.8355
same,AUC,"TE6, Esophageal Cancer",0.6845
same,AUC,"TE9, Esophageal Cancer",0.9819
same,AUC,"TE10, Esophageal Cancer",0.7055
same,AUC,"TE11, Esophageal Cancer",0.5915
same,AUC,"TE15, Esophageal Cancer",0.6898
same,AUC,"TE617T, Rhabdomyosarcoma",0.7575
same,AUC,"TF1, AML",0.4573
same,AUC,"TM87, Rhabdoid",0.6723
same,AUC,"TOLEDO, Lymphoma",0.9051
same,AUC,"TOV21G, Ovarian Cancer",0.8786
same,AUC,"TT2609C02, Thyroid Cancer",0.6078
same,AUC,"TT, Thyroid Cancer",0.6637
same,AUC,"TTC442, Rhabdomyosarcoma",0.8716
same,AUC,"TTC549, Rhabdoid",0.683
same,AUC,"TTC642, Rhabdoid",0.604
same,AUC,"TTC1240, Rhabdoid",0.6274
same,AUC,"TYKNU, Ovarian Cancer",0.7341
same,AUC,"U2OS, Osteosarcoma",0.9217
same,AUC,"U266B1, Myeloma",0.8925
same,AUC,"U937, AML",0.6875
same,AUC,"UACC62, Melanoma",0.717
same,AUC,"UACC257, Melanoma",0.8193
same,AUC,"UBLC1, Bladder Cancer",0.7124
same,AUC,"UMUC1, Bladder Cancer",0.6454
same,AUC,"UW228, Medulloblastoma",1
same,AUC,"VMCUB1, Bladder Cancer",0.6611
same,AUC,"VMRCRCW, Kidney Cancer",0.8987
same,AUC,"VMRCRCZ, Kidney Cancer",0.5968
same,AUC,"WM88, Melanoma",0.5816
same,AUC,"WM793, Melanoma",0.8497
same,AUC,"WM983B, Melanoma",0.7071
same,AUC,"YAPC, Pancreatic Cancer",0.8726
same,AUC,"YD10B, Head and Neck Cancer",0.7608
same,AUC,"YD15, Head and Neck Cancer",0.6259
same,AUC,"YD38, Head and Neck Cancer",0.5959
same,AUC,"YH13, Glioblastoma",0.7751
